Measurements: ChEMBL document CHEMBL1201862, “PubChem BioAssay data set” (2004)
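All cell lines were grown in 96-well plates and treated with compound for 48 hours. Abbreviation: GI50, concentration required for 50% inhibition of growth.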 Activity calls are given as the source filed them. No stated cut-off is given here; in the data, active = GI50 up to about 1.1 µM and inactive = higher.

Legend:
Assay in all cases: NCI-60 cell line screen, 48 h
[1] = system: 786-0
[2] = system: A498
[3] = system: A549
[4] = system: ACHN
[5] = system: BT-549
[6] = system: CAKI-1
[7] = system: CCRF-CEM
[8] = system: COLO 205
[9] = system: DU-145
[10] = system: EKVX
[11] = system: HCC 2998
[12] = system: HCT-116
[13] = system: HCT-15
[14] = system: HL-60
[15] = system: HOP-92
[16] = system: HT-29
[17] = system: Hs-578T
[18] = system: IGROV-1
[19] = system: K562
[20] = system: KM12
[21] = system: LOX IMVI
[22] = system: M14
[23] = system: MCF7
[24] = system: MDA-MB-231
[25] = system: MDA-MB-435
[26] = system: MDA-N
[27] = system: MOLT-4
[28] = system: Malme-3M
[29] = system: NCI-H226
[30] = system: NCI-H23
[31] = system: NCI-H460
[32] = system: NCI-H522
[33] = system: NCI/ADR-RES
[34] = system: OVCAR-4
[35] = system: OVCAR-5
[36] = system: OVCAR-8
[37] = system: PC-3
[38] = system: RXF 393
[39] = system: SF-268
[40] = system: SF-295
[41] = system: SF-539
[42] = system: SK-MEL-28
[43] = system: SK-MEL-2
[44] = system: SK-MEL-5
[45] = system: SK-OV-3
[46] = system: SN12C
[47] = system: SNB-19
[48] = system: SW-620
[49] = system: T47D
[50] = system: TK-10
[51] = system: U-251
[52] = system: UACC-257
[53] = system: UACC-62
[54] = system: UO-31

CC(C)C(C)C(O)C(O)C(C)C1CCC2C3COC(=O)C4CC(O)C(O)CC4(C)C3CCC12C (centres undefined)
GI50 [1]: > 100 µM (inactive)
GI50 [2]: > 100 µM (inactive)
GI50 [3]: 48.9 µM (inactive)
GI50 [4]: 25.4 µM (inactive)
GI50 [5]: 88.3 µM (inactive)
GI50 [6]: 11.7 µM (inactive)
GI50 [7]: 22.8 µM (inactive)
GI50 [8]: 94 µM (inactive)
GI50 [9]: > 100 µM (inactive)
GI50 [10]: 43.7 µM (inactive)
GI50 [11]: > 100 µM (inactive)
GI50 [12]: > 100 µM (inactive)
GI50 [13]: 66.1 µM
GI50 [14]: > 10 µM (inactive)
GI50 [15]: 32.8 µM (inactive)
GI50 [16]: 35.9 µM (inactive)
GI50 [17]: 78.7 µM (inactive)
GI50 [18]: > 100 µM (inactive)
GI50 [19]: 39 µM (inactive)
GI50 [20]: 50.2 µM (inactive)
GI50 [21]: > 100 µM (inactive)
GI50 [22]: > 100 µM (inactive)
GI50 [23]: 56.4 µM (inactive)
GI50 [24]: > 100 µM (inactive)
GI50 [25]: > 100 µM (inactive)
GI50 [26]: 56 µM (inactive)
GI50 [27]: 27.1 µM (inactive)
GI50 [28]: > 100 µM (inactive)
GI50 [29]: 23.2 µM (inactive)
GI50 [30]: 92.7 µM (inactive)
GI50 [31]: 57.9 µM (inactive)
GI50 [32]: 55.2 µM (inactive)
GI50 [33]: > 100 µM (inactive)
GI50 [34]: 59 µM (inactive)
GI50 [35]: > 100 µM (inactive)
GI50 [36]: 62.8 µM (inactive)
GI50 [37]: 46.9 µM (inactive)
GI50 [38]: 20.2 µM (inactive)
GI50 [39]: 79.3 µM (inactive)
GI50 [40]: 78.5 µM (inactive)
GI50 [41]: > 100 µM (inactive)
GI50 [42]: > 100 µM (inactive)
GI50 [43]: > 100 µM (inactive)
GI50 [44]: 35 µM (inactive)
GI50 [45]: > 100 µM (inactive)
GI50 [46]: 33.7 µM (inactive)
GI50 [47]: 28.1 µM (inactive)
GI50 [48]: > 100 µM (inactive)
GI50 [49]: 40.9 µM (inactive)
GI50 [50]: > 100 µM (inactive)
GI50 [51]: 62.5 µM (inactive)
GI50 [52]: > 100 µM (inactive)
GI50 [53]: > 100 µM (inactive)
GI50 [54]: 58.1 µM (inactive)
